The values that follow come from patent US20210401807A1, “NEW COMPOSITION COMPRISING AMORPHOUS NANOPOROUS SILICA PARTICLES” (VICORE PHARMA AB, priority 2018, published 2021).

Counter-ions that a name gives are not always drawn.

A short description of this data set: Dissolution kinetics in simulated lung fluid (SLF), USP 2 dissolution apparatus. It is filed as physicochemical. Particulars: SLF pH 7.4, 37° C. The method, then: The dissolution kinetics of the C21-loaded silica described in Example 5 were characterized in SLF (pH 7.4; Gamble's solution: made up with the salts NaCl, NaHCO3, KCl, MgCl2, CaCl2, Na2SO4, sodium citrate dihydrate, sodium acetate, NaH2PO4 (all from Sigma-Aldrich)) at 37° C. (Reference: Simulated Biological Fluids with Possible Application in Dissolution Testing, Marques et al,. Dissolution technologies August 2011, p15-28) using a USP 2 dissolution apparatus with stirring speed 75 rpm. Free, unloaded C21-sodium salt was used as control. Concentration of drug at set times after release was measured by a UV/vis spectrometer (Cecil 3021) at 267 nm.
The dose of C21 was calculated as 25 mg of C21 in 500 mL of SLF. […] The loaded C21 is fully released and dissolved from the silica particles in around 10 minutes.

Turning to `CCCCOC(=O)NS(=O)(=O)c1sc(CC(C)C)cc1-c1ccc(Cn2ccnc2)cc1` [C21 sodium salt, N-butyloxycarbonyl-3-(4-imidazol-1-ylmethylphenyl)-5-iso-butylthio-phene-2-sulfonamide], the “solubility in SLF conditions” value was “readily soluble”. The “released in the first 2 minutes” value (75 rpm, 25 mg of C21 in 500 mL) is reported as 96%.
